Results taken from patent US11622937B2, “Polyphenolic polymer to make water-insoluble molecules become water-soluble” (priority 2015, dated 2023).
Counter-ions that a name gives are not always drawn.

Assay: not given
Details: cited from earlier work

Compound	Reported Solubility in water
Nc1nnc(-c2cccc(Cl)c2Cl)c(N)n1 [6-(2,3-Dichlorophenyl)-1,2,4-triazine-3,5-diamine]	Insoluble
COc1ccc2c(c1)c(CC(=O)OCC(=O)O)c(C)n2C(=O)c1ccc(Cl)cc1 [Acemetacin]	Insoluble
C[C@@H](O[C@H]1OCCN(Cc2n[nH]c(=O)[nH]2)[C@H]1c1ccc(F)cc1)c1cc(C(F)(F)F)cc(C(F)(F)F)c1 [Aprepitant]	Insoluble
O=C1CCc2ccc(OCCCCN3CCN(c4cccc(Cl)c4Cl)CC3)cc2N1 [Aripiprazole, 99%, Aripiprazole]	Insoluble
C[C@@H]1CC[C@H]2[C@@H](C)C(=O)O[C@@H]3O[C@@]4(C)CC[C@@H]1[C@]32OO4 [Artemisinin]	Insoluble
CC(=O)Oc1ccccc1C(=O)O [Aspirin]	Insoluble
COc1ccc(CCN2CCC(Nc3nc4ccccc4n3Cc3ccc(F)cc3)CC2)cc1 [Astemizole]	Insoluble
Nc1ncn([C@@H]2O[C@H](CO)[C@@H](O)[C@H]2O)c(=O)n1 [Azacitidine (Vidaza), Azacitidine]	Insoluble
Cn1cnc([N+](=O)[O-])c1Sc1ncnc2nc[nH]c12 [Azathioprine]	Insoluble
CN1CCCC(n2nc(Cc3ccc(Cl)cc3)c3ccccc3c2=O)CC1 (centres unmarked) [Azelastine]	Insoluble
CC[C@H]1OC(=O)[C@H](C)[C@@H](O[C@H]2C[C@@](C)(OC)[C@@H](O)[C@H](C)O2)[C@H](C)[C@@H](O[C@@H]2O[C@H](C)C[C@H](N(C)C)[C@H]2O)[C@](C)(O)C[C@@H](C)CN(C)[C@H](C)[C@@H](O)[C@]1(C)O [Azithromycin-dihydrate]	Insoluble
CS(=O)(=O)OCCCCOS(C)(=O)=O [Busulphan]	Insoluble
CC1(C)S[C@@H]2[C@H](NC(=O)C(C(=O)O)c3ccccc3)C(=O)N2[C@H]1C(=O)O (some centres unmarked) [Carbenicillin disodium]	Insoluble
COc1ccccc1OCCNCC(O)COc1cccc2[nH]c3ccccc3c12 (centres unmarked) [Carvedilol]	Insoluble
CO/N=C(\C(=O)N[C@@H]1C(=O)N2C(C(=O)O)=C(COC(C)=O)CS[C@H]12)c1csc(N)n1 [Cefotaxime]	Insoluble
COC(=O)[C@H](c1ccccc1Cl)N1CCc2sccc2C1 [Clopidogrel Sulfate]	Insoluble
COc1cccc2c1C(=O)c1c(O)c3c(c(O)c1C2=O)C[C@@](O)(C(C)=O)C[C@@H]3O[C@H]1C[C@H](N)[C@H](O)[C@H](C)O1 [Daunorubicin hydrochloride]	Insoluble
O=C(O)Cc1ccccc1Nc1c(Cl)cccc1Cl [Diclofenac(pain), Diclofenac]	Insoluble

Compound	Reported Solubility in water
O=c1[nH]c2ccccc2n1CCCN1CCC(n2c(=O)[nH]c3cc(Cl)ccc32)CC1 [Domperidone]	Insoluble
CN(C)CCC[C@@]1(c2ccc(F)cc2)OCc2cc(C#N)ccc21 [Escitalopram]	Insoluble
CCc1cccc2c3c([nH]c12)C(CC)(CC(=O)O)OCC3 (centres unmarked) [Etodolac]	Insoluble
COc1cc([C@@H]2c3cc4c(cc3[C@@H](O[C@@H]3O[C@@H]5CO[C@@H](C)O[C@H]5[C@H](O)[C@H]3O)[C@H]3COC(=O)[C@H]23)OCO4)cc(OC)c1O [Etoposide]	Insoluble
NC(N)=Nc1nc(CSCCC(N)=NS(N)(=O)=O)cs1 [Famotidine]	Insoluble
CC(C)(C)NC(=O)[C@H]1CC[C@H]2[C@@H]3CC[C@H]4NC(=O)C=C[C@]4(C)[C@H]3CC[C@]12C [Finasteride]	Insoluble
COC1=CC(=O)C[C@@H](C)[C@]12Oc1c(Cl)c(OC)cc(OC)c1C2=O [Griseofulvin]	Insoluble
COc1ccc2c(c1)c(CC(=O)O)c(C)n2C(=O)c1ccc(Cl)cc1 [Indomethacin]	Insoluble
CC[C@H](C)C(=O)O[C@H]1CCC=C2C=C[C@H](C)[C@H](CC[C@@H]3C[C@@H](O)CC(=O)O3)[C@H]21 [Mevastatin]	Insoluble
COCCOC(=O)C1=C(C)NC(C)=C(C(=O)OC(C)C)C1c1cccc([N+](=O)[O-])c1 (centres unmarked) [Nimodipine]	Insoluble
CCn1cc(C(=O)O)c(=O)c2cc(F)c(N3CCNCC3)cc21 [Norfloxacin(antibiotic), Norfloxacin]	Insoluble
Cc1cc2c(s1)Nc1ccccc1N=C2N1CCN(C)CC1 [Olanzapine]	Insoluble
C=CC(=O)N1CCC[C@@H](n2nc(-c3ccc(Oc4ccccc4)cc3)c3c(N)ncnc32)C1 [PCI-32765]	Insoluble
CC(=O)O[C@H]1C(=O)[C@@]2(C)[C@H]([C@H](OC(=O)c3ccccc3)[C@]3(O)C[C@H](OC(=O)[C@H](O)[C@@H](NC(=O)c4ccccc4)c4ccccc4)C(C)=C1C3(C)C)[C@]1(OC(C)=O)CO[C@@H]1C[C@@H]2O [Paclitaxel from Taxus Brevifolia, Paclitaxel]	Insoluble
CC(=O)Nc1ccc(O)cc1 [Paracetamol]	Insoluble
C[C@]12C=CC(=O)C=C1CC[C@@H]1[C@@H]2C(=O)C[C@@]2(C)[C@H]1CC[C@]2(O)C(=O)CO [Prednisone]	Insoluble
Oc1ccc(C=Cc2cc(O)cc(O)c2)cc1 [Resveratrol]	Insoluble

Assay: Solubility with Polyphenolic Polymer in water
Details: molecule formulated with Polyphenolic Polymer

Compound	Solubility with Polyphenolic Polymer in water (more than 99%)
CC(=O)Oc1ccccc1C(=O)O [Aspirin]	Water Soluble
CN1CCCC(n2nc(Cc3ccc(Cl)cc3)c3ccccc3c2=O)CC1 (centres unmarked) [Azelastine]	Water Soluble
CC[C@H]1OC(=O)[C@H](C)[C@@H](O[C@H]2C[C@@](C)(OC)[C@@H](O)[C@H](C)O2)[C@H](C)[C@@H](O[C@@H]2O[C@H](C)C[C@H](N(C)C)[C@H]2O)[C@](C)(O)C[C@@H](C)CN(C)[C@H](C)[C@@H](O)[C@]1(C)O [Azithromycin-dihydrate]	Water Soluble
CC[C@H](CC[C@@H](C)[C@H]1CC[C@H]2[C@@H]3CC=C4C[C@@H](O)CC[C@]4(C)[C@H]3CC[C@]12C)C(C)C [Beta-sitosterol]	Water Soluble
C/C(=C\c1csc(C)n1)[C@@H]1C[C@@H]2O[C@@H]2CCC[C@H](C)[C@H](O)[C@@H](C)C(=O)C(C)(C)[C@@H](O)CC(=O)O1 [Epothilone A]	Water Soluble
N[C@@H](Cc1ccc(N(CCCl)CCCl)cc1)C(=O)O [Melphalan(cancer), Melphalan]	Water Soluble
C[C@@H]1[C@H](O)[C@@H](C)/C=C/C=C/CC/C=C/C=C/C=C/C=C/C(O[C@H]2O[C@H](C)[C@@H](O)[C@H](N)[C@@H]2O)CC2O[C@](O)(CC(O)C(O)CCC(O)CC(O)CC(O)CC(=O)O[C@H]1C)CC(O)C2C(=O)O (some centres unmarked) [Nystatin mycostatin]	Water Soluble
Ivermectin	Water Soluble
Pyrethrin	Water Soluble
